According to patent publication EP0000336A1, “N-benzylpyrimidinyl-amidines, process for their preparation and medicines containing them” (BASF Aktiengesellschaft, priority 1977, dated 1979):

System: Streptococcus agalactiae 7941
Assay: Aronson sepsis model in mice, sulfonamide potentiation compared with trimethoprim
Assay type: in vivo
Conditions: female mice (groups of 30), lethal dose of Streptococcus agalactiae 7941; treated 2 h after infection with 300 mg 2-Sulfanilamido-4,5-dimethyloxazol + 60 mg test substance; survivors after 44 h divided by survivors of the group given 300 mg 2-Sulfanilamido-4,5-dimethyloxazol + 60 mg Trimethoprim
Source text: Verwendet man beispielsweise N-[4-Amino-5-(3,4,5-trimethoxybenzyl)-pyrimidin-2-yl]-acetamidsäureäthylester und Anilin als Ausgangsstoffe, so kann der Reaktionsverlauf durch folgendes Formelschema wiedergegeben werden: [drawing 7] 2um Wirksamkeitsnachweis wurden erfindungsgemäße Substanzen im Tierversuch am Modell der sogenannten Aronson-Sepsis, wobei mit Streptococcus agalactiae infiziert wird, geprüft und mit dem bekannten Trimethoprim verglichen. Hierzu wurden Gruppen von je 30 weiblichen Mäusen mit einer tödlichen Dosis von Streptococcus agalactiae 7941 infiziert und 2 Stunden nach der Infektion mit einer Mischung von 300 mg 2-Sulfanilamido-4,5-dimethyloxazol + 60 mg einer der erfindungsgemäßen Substanzen behandelt. Außer einer nicht behandelten Kontrollgruppe wurde eine zweite Gruppe mit dem als Referenzsubstanz dienenden Gemisch von 300 mg 2-Sulfanilamido-4,5-dimethyloxazol + 60 mg Trimethoprim behandelt. Nach 44 Stunden wurde die Zahl der überlebenden Tiere bestimmt und diese Zahl durch die Zahl der überlebenden aus der mit der Referenzsubstanz behandelten Gruppe dividiert. Der so erhaltene Zahlenwert (Trimethoprimfaktor) ist ein Maß für die Wirkung der erfindungsgemäßen Substanzen im Vergleich zum Trimethoprim. F = 2 bedeutet also, daß die Substanz doppelt so wirksam ist wie Trimethoprim. […]

COc1cc(Cc2cnc(N=C(C)N(C)C)nc2N)cc(OC)c1OC [Beispiel 1]
F (Trimethoprimfaktor): 1,2
